Assay results reported in US11198869B2, “Angelman syndrome antisense treatment” (The Texas A&M University System, priority 2017, dated 2021).

Assays:
Format in all cases: cell-based, human
[1] = system: SNURF; test: RNA-sequencing of Angelman syndrome iPSC neurons: SNURF; conditions: 30 μM; six days post-treatment; RNA-seq
Protocol: (§1) RNA was isolated using Qiagen RNAeasy Plus (74136, Qiagen, Hilden, Germany). RNA concentration was determined using Qubit Fluorometric Quantitation (Thermo Fisher Scientific) and RNA quality was assessed using a 4200 Agilent TapeStation (Agilent, Santa Clara, Calif.). RNA-sequencing libraries were generated using the Illumina TruSeq Stranded Total RNA kit (20020597, Illumina, Inc., San Diego, Calif.) according to the manufacturer's protocol. 75 base-pair paired-end sequencing was performed using a NextSeq 500 (IIlumina, San Diego, Calif.) at the Texas A&M Institute for Genome Sciences and Society Genomics core. Raw sequencing reads were processed using CASAVA. The resulting FASTQ sequences were examined using FASTQC. […]
(§2) To determine whether ASO-4.4.PS.L and ASO-6.1.PO-1.O affect the levels of RNA transcripts encoded by the PWS polycistronic transcript, RNA-sequencing was performed on AS iPS cells treated with each ASO and the steady state RNA levels of SNURF, SNRPN, the SNORD116 host-gene transcript (SNHG116), the SNORD116 snoRNAs, IPW, the SNORD115 host-gene transcript (SNHG115), the SNORD115 snoRNAs, and UBE3A-AS were quantified. UBE3A steady state RNA levels were also measured. […]

[2] = system: SNORD115 host-gene transcript (SNHG115); test: RNA-sequencing of Angelman syndrome iPSC neurons: SNHG115; conditions: 30 μM, six days post-treatment, RNA-seq
Protocol: as §1, §2

[3] = system: SNORD115 snoRNAs; test: RNA-sequencing of Angelman syndrome iPSC neurons: SNORD115 snoRNAs; conditions: 30 μM; six days post-treatment; RNA-seq
Protocol: as §1, §2

[4] = system: UBE3A-AS; test: UBE3A-AS steady state RNA (TaqMan qRT-PCR) in GABAergic iPSC-derived neurons; conditions: for Relative Potency: relative to ASO-4.4.PS.L = 1
[5] = Cluster 1 ASOs, 18 DIV to 24 DIV, parallel model, 4 Parameter logistic (Hill)
[6] = candidate ASOs, 18 DIV to 24 DIV
[7] = candidate ASOs, 18 DIV to 24 DIV, 4-parameter logistic (Hill)
[8] = candidate ASOs, treated 18 DIV, RNA 24 DIV, 10-point dose curve, n=2, full model, 4-parameter logistic (Hill)

Substance: C^O*U^O*G^O*G^O-t*g*t*c*a*a*c*a*a*g-C^O*C^O*A^O*A^o [ASO-6.1.PO-1.O]
- Difference, SNURF RNA level relative to vehicle [1]: −0.53
- Difference, SNH115G RNA level relative to vehicle [2]: significantly reduced
- Difference, SNH115G RNA level relative to vehicle ([2]; listed as ASO-6.1.PS-1.O): −0.55
- Difference, SNORD115 RNA level relative to vehicle [3]: 0.24
- IC50 [4, 5]: 199 nM
- IC50 Ratio relative to ASO-4.4.PS.L ([4]; Cluster 1 ASOs, equivalence, two one-sided tests): 0.86
- Relative Potency ([4]; Cluster 1 ASOs, parallel model): 0.3
- Limit Exceeded (equivalence of IC50 relative to ASO-4.4.PS.L) ([4]; Cluster 1 ASOs, two one-sided tests): Lower
- 30 μM (Mean), normalized UBE3A-AS RNA level relative to vehicle [4, 6]: 0.04
- Emax (normalized UBE3A-AS RNA level relative to vehicle) [4, 7]: −0.1
- IC50 [4, 8]: 315 nM

Substance: A^L*G^L*A^L*a*t*g*g*c*a*c*a*t*c*t*5mC^L*T^L*T^L*G^L (NNNATGGCACATCTNNNN; LNA gapmer, PS, 5-methylcytosine, chemistry not fully specified) [ASO-4.4.PS.L]
- Difference, SNURF RNA level relative to vehicle [1]: 0.49
- Difference, SNORD115 RNA level relative to vehicle [3]: −0.26
- IC50 [4, 5]: 50.3 nM
- Relative Potency ([4]; Cluster 1 ASOs, parallel model): 1
- 30 μM (Mean), normalized UBE3A-AS RNA level relative to vehicle [4, 6]: 0.05
- Emax (normalized UBE3A-AS RNA level relative to vehicle) [4, 7]: 0.0
- IC50 [4, 8]: 26.6 nM
